Some test systems named below: A549; COLO 205; HCT-15; HL-60; Hs-578T; IGROV-1; K562; LOX IMVI; MCF7; MDA-N; Malme-3M; OVCAR-3; SNB-19; SW-620; TK-10; U-251; UACC-62; A498; SK-MEL-28; UO-31.
Common to all, as to assay: NCI anticancer screen, dose series, 48 h

SMILES strings stand for the structures.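 Where inhibition never reached the appropriate level, the endpoint shown equals the highest concentration tested. Otherwise, values were interpolated linearly from a five-concentration, 48-hour dose response in 96-well plates. GI50 = concentration required for 50% inhibition of growth.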 Active and inactive are the calls of the source. No stated cut-off is given here; in the data, active = GI50 up to about 1.1 µM and inactive = higher.

The text below walks through data of ChEMBL document CHEMBL1201862, “PubChem BioAssay data set” (2004).

On to `COc1cc2c(c(OC)c1OC)-c1ccc(SC)cc1C(=O)CC2`, for which the GI50 with A549 was < 0.01 µM (active); in the experiment on COLO 205 it was < 0.01 µM (active); in the experiment with HCT-15, below 0.01 µM; in the experiment with HL-60, < 0.01 µM (active); in the experiment with Hs-578T it was < 0.01 µM (active); in the experiment with IGROV-1 it was < 0.01 µM (active). Also, the GI50 in the experiment with K562 is < 0.01 µM (active); in the experiment with LOX IMVI, < 0.01 µM (active); in the experiment on MCF7, < 0.01 µM (active); in the experiment with MDA-N, 0.0243 µM (active); with Malme-3M, < 0.01 µM (active); with OVCAR-3, < 0.01 µM (active). Also, the GI50 in the experiment on SNB-19 is < 0.01 µM (active); with SW-620, < 0.0228 µM (active); with TK-10 it was > 100 µM (inactive); in the experiment with U-251 it was < 0.01 µM (active); with UACC-62 it was < 0.01 µM (active).

`O=C(N/N=C\c1cccc(O)c1)c1ccncc1`: the GI50 in the experiment with A498 was > 100 µM (inactive); with A549, > 100 µM (inactive); in the experiment on HCT-15, above 100 µM; in the experiment with Hs-578T it was > 100 µM (inactive); in the experiment with IGROV-1, > 100 µM (inactive); with K562, > 100 µM (inactive). For the same molecule, the GI50 with LOX IMVI, in the experiment on MDA-N, with Malme-3M, in the experiment on OVCAR-3, with SK-MEL-28 and with SNB-19 was > 100 µM (inactive) in each case. Also, the GI50 in the experiment on SW-620, in the experiment on TK-10, in the experiment with U-251, in the experiment on UACC-62 and in the experiment on UO-31 was > 100 µM (inactive) in each case.

For `CN(Cc1cccc2ccccc12)Cc1cccc2ccccc12`, the GI50 with A498 was 28.8 µM (inactive); in the experiment on A549, 34 µM (inactive); with COLO 205, 17.8 µM (inactive); in the experiment with HCT-15, 22.2 µM; in the experiment with HL-60 it was 13.4 µM (inactive); in the experiment with Hs-578T, 44.3 µM (inactive). The GI50 in the experiment with IGROV-1 was 32.2 µM (inactive); in the experiment with K562 it was 35.1 µM (inactive); in the experiment on LOX IMVI, 34.3 µM (inactive); in the experiment with MCF7, 20.7 µM (inactive); in the experiment on Malme-3M, 20 µM (inactive); in the experiment with OVCAR-3, 44.4 µM (inactive). For the same molecule, the GI50 with SK-MEL-28 is 35.2 µM (inactive); in the experiment on SNB-19 it was 52.7 µM (inactive); in the experiment on SW-620, 20.6 µM (inactive); with TK-10, > 100 µM (inactive); in the experiment with U-251 it was 22.6 µM (inactive); in the experiment on UACC-62 it was 67.5 µM (inactive). The GI50 with UO-31 was 36.6 µM (inactive).

Consider `c1cc2nnnn2nc1N1CCCC1`, for which the GI50 was > 100 µM (inactive) in the experiment with A498; > 100 µM (inactive) with A549; > 100 µM (inactive) with COLO 205; above 100 µM in the experiment on HCT-15; > 100 µM (inactive) with HL-60; > 100 µM (inactive) in the experiment on K562. In addition, the GI50 in the experiment on LOX IMVI, with MCF7, in the experiment on MDA-N, with SK-MEL-28, with SNB-19 and in the experiment on SW-620 was > 100 µM (inactive) in each case. The GI50 in the experiment on TK-10, in the experiment with U-251, in the experiment with UACC-62 and in the experiment with UO-31 was > 100 µM (inactive) throughout.

Turning to `CNC(=O)OC(COC)CN1CCN(c2ccccc2C)CC1` (centres undefined), the GI50 with A498 is > 10 µM (inactive); in the experiment with A549, > 10 µM (inactive); with COLO 205, > 10 µM (inactive); in the experiment on HCT-15, above 10 µM; in the experiment on HL-60, > 10 µM (inactive); with Hs-578T it was > 10 µM (inactive). Further, the GI50 with IGROV-1, in the experiment with K562, in the experiment on LOX IMVI, in the experiment with MCF7, in the experiment with Malme-3M and with OVCAR-3 was > 10 µM (inactive) throughout. For the same molecule, the GI50 in the experiment with SK-MEL-28, in the experiment on SNB-19, in the experiment with SW-620, with TK-10, in the experiment with U-251 and in the experiment on UACC-62 was > 10 µM (inactive) throughout. For the same molecule, the GI50 with UO-31 is > 10 µM (inactive).

On to `ClCCCN(CCCCl)c1ccc(/C=N/c2cccc(Cl)c2)cc1`, for which the GI50 with A549 was 10.2 µM (inactive); in the experiment with COLO 205 it was 47.6 µM (inactive); with HCT-15, 18.1 µM; in the experiment with HL-60, 12.6 µM (inactive); in the experiment with Hs-578T it was 16.1 µM (inactive); with IGROV-1 it was 29.8 µM (inactive). Besides, the GI50 is 11.8 µM (inactive) in the experiment on K562; 7.57 µM (inactive) in the experiment on LOX IMVI; 23.5 µM (inactive) with MCF7; 6.22 µM (inactive) with Malme-3M; 19.1 µM (inactive) with OVCAR-3; 55.8 µM (inactive) with SK-MEL-28. The GI50 was 30.1 µM (inactive) in the experiment on SNB-19; 12.9 µM (inactive) with SW-620; 4.48 µM (inactive) in the experiment on TK-10; 26.9 µM (inactive) in the experiment with U-251; 1.49 µM (inactive) in the experiment on UACC-62; 15.8 µM (inactive) in the experiment on UO-31.

Turning to `CC(C)C[P+](c1ccccc1)(c1ccccc1)c1ccccc1`, the GI50 in the experiment with A498 was 32.1 µM (inactive); in the experiment with A549, 6.22 µM (inactive); with COLO 205 it was 3.08 µM (inactive); with HCT-15, 64.3 µM; with HL-60, 2.29 µM (inactive); in the experiment with Hs-578T, 11.2 µM (inactive). The GI50 is 13.3 µM (inactive) in the experiment with IGROV-1; 2.28 µM (inactive) in the experiment with K562; 11.3 µM (inactive) with LOX IMVI; 3.31 µM (inactive) in the experiment with MCF7; 5.7 µM (inactive) in the experiment on Malme-3M; 2.31 µM (inactive) in the experiment with OVCAR-3. For the same molecule, the GI50 with SK-MEL-28 is 22.6 µM (inactive); with SNB-19, 9.35 µM (inactive); with SW-620 it was 5.87 µM (inactive); in the experiment with TK-10, 7.08 µM (inactive); with U-251, 3.12 µM (inactive); in the experiment on UACC-62, 3.85 µM (inactive). In addition, the GI50 in the experiment on UO-31 is 45.5 µM (inactive).

In the case of `O=C1CCSSCCC(=O)NCCN1`, the GI50 in the experiment on A498 was > 100 µM (inactive); in the experiment on A549, > 100 µM (inactive); in the experiment with COLO 205 it was > 100 µM (inactive); in the experiment on HCT-15, above 100 µM; in the experiment with HL-60, > 100 µM (inactive); in the experiment on Hs-578T it was > 100 µM (inactive). Besides, the GI50 in the experiment with IGROV-1, in the experiment on K562, in the experiment on LOX IMVI, with MDA-N, in the experiment on Malme-3M and in the experiment on OVCAR-3 was > 100 µM (inactive) each time. For the same molecule, the GI50 in the experiment with SK-MEL-28, in the experiment with SNB-19, in the experiment with SW-620, with TK-10, in the experiment with U-251 and in the experiment with UACC-62 was > 100 µM (inactive) in each case. Besides, the GI50 in the experiment with UO-31 is > 100 µM (inactive).

Turning to `CCOC(=O)Cc1csc2[n+]1C(=O)/C(=C/c1cccc(OC)c1O)S2`, the GI50 was 67.5 µM (inactive) in the experiment with A549; 78.5 µM (inactive) in the experiment on COLO 205; 42.4 µM in the experiment with HCT-15; 45.8 µM (inactive) in the experiment with HL-60; 45.4 µM (inactive) in the experiment on IGROV-1; 51.8 µM (inactive) with LOX IMVI. The GI50 in the experiment with MCF7 was 45.3 µM (inactive); in the experiment with MDA-N, 40.1 µM (inactive); in the experiment on OVCAR-3, 38.2 µM (inactive); with SK-MEL-28, 84.9 µM (inactive); in the experiment with SNB-19, 50.9 µM (inactive); in the experiment on SW-620 it was > 100 µM (inactive). Further, the GI50 in the experiment on TK-10 was 46.2 µM (inactive); with U-251 it was 0.192 µM (active); in the experiment on UACC-62, 97.7 µM (inactive); in the experiment with UO-31 it was 28.7 µM (inactive).

Take `C#C/C=C\CCCC/C=C\C#CC#CCCCC#CC#C[C@H](COS(=O)(=O)O)OS(=O)(=O)O`: the GI50 in the experiment with A549 was > 100 µM (inactive); in the experiment with COLO 205 it was > 100 µM (inactive); in the experiment on HCT-15, above 100 µM; in the experiment on HL-60 it was > 100 µM (inactive); in the experiment with Hs-578T it was > 100 µM (inactive); with IGROV-1, > 100 µM (inactive). The GI50 in the experiment on LOX IMVI, with MCF7, with MDA-N, in the experiment on OVCAR-3, with SK-MEL-28 and with SNB-19 was > 100 µM (inactive) each time. Moreover, the GI50 in the experiment with SW-620 was > 100 µM (inactive); in the experiment with TK-10 it was > 100 µM (inactive); in the experiment on U-251, > 100 µM (inactive); in the experiment on UACC-62, > 100 µM (inactive); in the experiment on UO-31 it was 72.4 µM (inactive).

In the case of `C=C1C(C[C@@H]2O[C@H]3C[C@H]4O[C@@]5(C[C@@H]6O[C@]7(C[C@H](C)[C@@H]8O[C@@H]9CC(C(O)CO)O[C@@H]9C[C@@H]8O7)C[C@H](C)[C@@H]6O5)C[C@H]4O[C@H]3[C@H](C)[C@H]2O)O[C@@H](CC[C@@H]2O[C@@H](CC[C@@]34CC5O[C@H]6C(O[C@H]7CC[C@H](CC(=O)OC)O[C@@H]7[C@@H]6O3)[C@H]5O4)CC2=C)C[C@H]1C` (some centres undefined), the GI50 was 0.000108 µM (active) with A549; < 0.0001 µM (active) in the experiment on COLO 205; 0.000258 µM in the experiment on HCT-15; < 0.0001 µM (active) with HL-60; < 0.0001 µM (active) in the experiment with Hs-578T; < 0.0001 µM (active) in the experiment on IGROV-1. In addition, the GI50 in the experiment on K562 was < 0.0001 µM (active); with LOX IMVI it was < 0.0001 µM (active); with MCF7 it was < 0.0001 µM (active); in the experiment with MDA-N, < 0.0001 µM (active); with OVCAR-3, < 0.0001 µM (active); in the experiment with SNB-19 it was 0.000304 µM (active). Further, the GI50 in the experiment on SW-620 is < 0.0001 µM (active); in the experiment on TK-10, 0.0152 µM (active); with U-251, < 0.0001 µM (active); in the experiment with UACC-62 it was < 0.0001 µM (active); in the experiment with UO-31 it was 0.000904 µM (active).
